Results published in article PMC5617771 (Bioorganic & medicinal chemistry, 2017).

Legend:
[1] = target: HIV-1 protease (Human immunodeficiency virus type 1 group M subtype B, UniProt P04585); test: HIV-1 protease enzyme inhibition; assay type: biochemical
[2] = test system: HIV-1 LAI; test: Antiviral activity in MT-2 cells exposed to HIV-1 LAI; assay type: cell-based; details: for fold improvement in antiviral assay with respect to 3b: relative to 3b

## COc1ccc(S(=O)(=O)N(CC(C)C)C[C@@H](O)[C@H](Cc2ccccc2)NC(=O)c2cc(O)cc(C(=O)N(C)Cc3nc(C)oc3C)c2)cc1 [Inhibitor 3f, N^1-((2,5-dimethyloxazol-4-yl)methyl)-5-hydroxy-N^3-((2S,3R)-3-hydroxy-4-((N-isobutyl-4-methoxyphenyl)sulfonamido)-1-phenylbutan-2-yl)-N^1-methylisophthalamide]
[1]; relative to 3e
  fold protease inhibitory potency over methylamino analogue 3e: 10 fold

## COc1ccc(S(=O)(=O)N(CC(C)C)C[C@@H](O)[C@H](Cc2ccccc2)NC(=O)c2cccc(C(=O)N3CCC[C@@H]3c3nc(C)cs3)c2)cc1 [Inhibitor 4b, N-((2S,3R)-3-hydroxy-4-((N-isobutyl-4-methoxyphenyl)sulfonamido)-1-phenylbutan-2-yl)-3-((R)-2-(4-methylthiazol-2-yl)pyrrolidine-1-carbonyl)benzamide]
[1]; relative to 4a
  fold improved potency over (S) counterpart 4a: over 100 fold

## COc1ccc(S(=O)(=O)N(CC(C)C)C[C@@H](O)[C@H](Cc2ccccc2)NC(=O)c2cccc(C(=O)N(C)Cc3coc(C)n3)c2)cc1 [Inhibitor 3c, N^1-((2S,3R)-3-hydroxy-4-((N-isobutyl-4-methoxyphenyl)sulfonamido)-1-phenylbutan-2-yl)-N^3-methyl-N^3-((2-methyloxazol-4-yl)methyl)isophthalamide]
[2]
  fold improvement in antiviral assay with respect to 3b: over 20 fold

## COc1ccc(S(=O)(=O)N(CC(C)C)C[C@@H](O)[C@H](Cc2ccccc2)NC(=O)c2cccc(C(=O)N(C)Cc3csc(C)n3)c2)cc1 [Inhibitor 3d, N^1-((2S,3R)-3-hydroxy-4-((N-isobutyl-4-methoxyphenyl)sulfonamido)-1-phenylbutan-2-yl)-N^3-methyl-N^3-((2-methylthiazol-4-yl)methyl)isophthalamide]
[2]
  fold improvement in antiviral assay with respect to 3b: over 20 fold
[1]; relative to 3c
  fold enhanced protease inhibitory activity over 3c: 5 fold

## COc1ccc(S(=O)(=O)N(CC(C)C)C[C@@H](O)[C@H](Cc2ccccc2)NC(=O)c2cccc(C(=O)N3CCC[C@@H]3c3nc(C)co3)c2)cc1 [Inhibitor 4h, N-((2S,3R)-3-hydroxy-4-((N-isobutyl-4-methoxyphenyl)sulfonamido)-1-phenylbutan-2-yl)-3-((R)-2-(4-methyloxazol-2-yl)pyrrolidine-1-carbonyl)benzamide]
[2]; relative to 4g
  fold improved antiviral profile with respect to 4g: 10 fold
